Earlier results in US8426587B2, “Haloallylamine inhibitors of SSAO/VAP-1 and uses therefor” (Pharmaxis Ltd., priority 2007, dated 2013).

System: LPS-induced pulmonary inflammation
Settings: cited from earlier work

SMILES: NC/C(=C/F)CCc1ccc(F)cc1 [Mofegiline, reference compound]
- BAL cell counts (mouse overexpressing human SSAO/VAP-1, LPS): significantly reduces
- LPS-induced increase in TNF-a (mouse overexpressing human SSAO/VAP-1): significantly attentuates
